{"source": "patent US20110166220A1", "about": "“DRONEDARONE FOR THE PREVENTION OF PERMANENT ATRIAL FIBRILLATION” (SANOFI-AVENTIS, priority 2008, published 2011)", "key": {"[1]": {"test": "Same trial: prevention of cardiovascular hospitalization or death in patients with permanent atrial fibrillation", "format": "in vivo", "method": "The invention is illustrated with the data below. Efficacy of dronedarone and its pharmaceutically acceptable salts versus placebo for the prevention of permanent atrial fibrillation was provided via dronedarone hydrochloride during a prospective, multinational, double-blind, randomized, multi-center, placebo-controlled, parallel group trial. Study drug treatment units (placebo or dronedarone hydrochloride corresponding to 400 mg of base) were such that each patient took one tablet in the morning during or shortly after breakfast and one tablet in the evening during or shortly after dinner. The treatment duration depended on the time of recruitment of each patient in the trial and could be comprised from 12 months to 30 months. From the 4628 patients included in the trial, 2301 were part of the group treated with dronedarone hydrochloride. “Patients with permanent atrial fibrillation or flutter” means patients with a history of atrial fibrillation or atrial flutter, who were in atrial fibrillation or flutter at the time of recruitment but who had not a previous history of permanent atrial fibrillation or flutter and who stayed in permanent atrial fibrillation or flutter during all the trial. The results obtained during this trial were analyzed by the Kaplan Meier method for the figures and the relative risk (RR) was estimated using Cox's proportional effect regression model. The relative risk (RR) is the ratio of the rates of occurrence of a hospitalization or death in patients receiving dronedarone compared with patients receiving a placebo. The percentage reduction x of a given event (hospitalization, death, cardiovascular death and the like) is calculated in the following manner: x=1−relative risk. Of the 4628 patients included in the study, 2301 formed part of the group treated with dronedarone hydrochloride. […] 74 events were recorded in the placebo group against 29 in the group treated with dronedarone hydrochloride. The calculated relative risk is 0.67 with p=0.06, that is a 33% reduction in cardiovascular hospitalizations and deaths under dronedarone hydrochloride."}, "[2]": {"test": "Prospective, multinational, double-blind, randomized, placebo-controlled, parallel group trial: prevention of permanent atrial fibrillation/flutter", "format": "in vivo", "conditions": "of 2301 patients treated; 400 mg of base twice daily with meals, 12 to 30 months; placebo 294; Fischer's exact test p<0.001", "description": "The invention is illustrated with the data below. Efficacy of dronedarone and its pharmaceutically acceptable salts versus placebo for the prevention of permanent atrial fibrillation was provided via dronedarone hydrochloride during a prospective, multinational, double-blind, randomized, multi-center, placebo-controlled, parallel group trial.\nPatients must have a history of atrial fibrillation or atrial flutter and/or may be in normal sinus rhythm or in atrial fibrillation or flutter at the time of recruitment. Recruitment of patients was conducted taking into account the following inclusion criteria:\n1) One of the following risk factors had to be present: • age equal to or greater than 70 years, • hypertension (taking antihypertensives of at least two different classes), • diabetes, • history of cerebral stroke (transient ischemic event or completed cerebral stroke) or of systemic embolism, • left atrial diameter greater than or equal to 50 mm measured by echocardiography, • left ventricular ejection fraction less than 40%, measured by two-dimensional echography; […]"}}, "note": "Counter-ions that a name gives are not always drawn.", "data": [{"smiles": "CCCCc1oc2ccc(NS(C)(=O)=O)cc2c1C(=O)c1ccc(OCCCN(CCCC)CCCC)cc1", "note": "[dronedarone hydrochloride, 2-n-butyl-3-[4-(3-di-n-butylaminopropoxy)benzoyl]-5-methylsulfonamido-benzofuran]", "values": [{"measurement": "events (cardiovascular hospitalization or death) recorded in patients in permanent atrial fibrillation", "setting": "[1]; 178 patients in permanent AF in treated group, placebo 74 events of 294 patients", "result": 29, "unit": "events"}, {"measurement": "relative risk (RR) of cardiovascular hospitalization or death versus placebo", "setting": "[1]; patients in permanent atrial fibrillation, Cox's proportional effect regression model, p=0.06", "result": 0.67}, {"measurement": "reduction in cardiovascular hospitalizations and deaths (x=1-relative risk)", "setting": "[1]; patients in permanent atrial fibrillation, versus placebo, p=0.06", "result": 33, "unit": "%"}, {"measurement": "number of patients with permanent atrial fibrillation/flutter", "setting": "[2]", "result": 178, "unit": "patients"}]}]}
